This experiment concerns the target CB2 (Macaca fascicularis, UniProt G7NVV5). Description: In vitro CB2 internalization flow cytometry assay in Cynomolgus whole blood. In kind it is cell-based, Cynomolgus monkey. The method, then: FIG. 10: In vitro IC50 determination of CB2 internalization on B-cells in whole blood from Cynomolgus monkeys. Cynomolgus whole blood was incubated with RG7774 for 1 hour at 37° C. followed by incubation with the anti-human CB2 antibody 1/622. The expression of CB2 on the surface of B-cells was analyzed using a lineage marker mix specific for B-cells and T-cells. The B/T-cell CB2 MFI ratio was calculated and normalized to baseline. 0 μM was set as 100% baseline receptor expression.
In order to establish whether the CB2 surface assay is cross-reactive in Cynomolgus monkey, blood obtained from five different healthy Cynomolgus monkey has been tested in vitro and the individual IC50 values for RG7774 and maximum reduction of CB2 surface expression in whole blood determined using 8 different compound concentrations in duplicates (FIG. 10, Table 8).

Chain of CB2 (G7NVV5 1-360): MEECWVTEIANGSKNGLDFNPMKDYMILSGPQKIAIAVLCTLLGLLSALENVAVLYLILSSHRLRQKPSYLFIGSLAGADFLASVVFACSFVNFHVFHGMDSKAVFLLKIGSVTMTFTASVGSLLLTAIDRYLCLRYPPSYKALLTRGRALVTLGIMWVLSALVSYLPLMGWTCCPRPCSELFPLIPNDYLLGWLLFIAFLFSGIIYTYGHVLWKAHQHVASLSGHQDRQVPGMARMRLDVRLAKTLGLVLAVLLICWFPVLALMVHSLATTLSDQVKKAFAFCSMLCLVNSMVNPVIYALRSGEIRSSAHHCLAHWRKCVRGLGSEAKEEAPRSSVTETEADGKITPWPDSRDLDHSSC

For the molecule `Cn1nnnc1Cn1nnc2c(N3CC[C@H](O)C3)nc(C(C)(C)C)nc21` [RG7774, (S)-1-[5-tert-Butyl-3-(1-methyl-1H-tetrazol-5-ylmethyl)-3H-[1,2,3]triazolo [4,5-d]pyrimidin-7-yl]-pyrrolidin-3-ol], the “reduction of the CB2 expression” value (T-cells, Monocytes and Granulocytes (data not shown)) is recorded as “has not been observed”. The “responder status in vitro” value (five Cynomolgus monkeys) was “One Cynomolgus out of five is a non-responder”.

These data come from patent US20260029420A1, “ANTI-CB2 ANTIBODIES AND THEIR USE IN A FLOW CYTOMETRY ASSAY TO MEASURE CELL SURFACE CB2 EXPRESSION” (Hoffmann-La Roche Inc., priority 2022, published 2026).
